Each structure is given as a SMILES string. Bounds are passed on as bounds.

Results on 15 compounds are retold here after PMC11089561, “Structural Investigations of Phthalazinone Derivatives as Allosteric Inhibitors of Human DNA Methyltransferase 3A” (ACS Medicinal Chemistry Letters, 2024).

For series [1], the target named is T1, DNMT3A_CD (catalytic domain of DNMT3A) (Homo sapiens, UniProt Q9Y6K1).
T1 construct: The catalytic domain of DNMT3A (residues 634 -912) were used for all experiments; made in house; host or cells: E. coli NiCo21 (DE3) (NEB)
The series can be described thus: Kinetics studies: methylation assays with varied SAM or poly dI-dC, fit to inhibition models. The format is biochemical. Particulars: for α coefficient from mixed-type inhibition model, varied SAM: SAM varied 0.15-10 uM, poly dI-dC 10 uM; for α coefficient from mixed-type inhibition model, varied SAM / α coefficient from mixed-type inhibition model, varied DNA: α < 1 = preference for enzyme-substrate complex; for α coefficient from mixed-type inhibition model, varied DNA: poly dI-dC varied 0.15-10 uM, SAM 10 uM; for Best fit inhibition model: with DNA and SAM varied, R2 comparison and F-test, p-value < 0.0001. The text has this:
Using methylation assays with and without inhibitor and varied concentrations of DNA or SAM, we generated nonlinear Michaelis–Menten curves with corresponding double-reciprocal plots (Figure S2) and fit them to classical inhibition models. […] By analyzing double-reciprocal plots, this mechanistic model was confirmed because the changes in y-intercept and slope are inconsistent with competitive and uncompetitive forms of inhibition, respectively. […] Furthermore, the selected analogs also bind more tightly to the enzyme–substrate complex than to the free enzyme with both DNA and SAM (Table S2). This preference could be beneficial since DNMT3A bound to DNA is likely the dominant species in a cellular context. […]
(§1) buffer and eluted with an identical buffer containing a higher imidazole concentration of 500 mM. Eluted protein was desalted with a 5 mL HiTrap Desalting column (Cytiva) and flash frozen in liquid nitrogen for storage at -80 °C. DNMT3A_CD concentration was determined using UV-vis with an extinction coefficient determined by protparam of 38,180 M-1 cm-1 to represent the monomeric state.
(§2) In Vitro Methylation Assays
(§3) Methylation assays were used to determine nanomolar amounts of methylated DNA product. Reactions were carried out in 50 mM K2HPO4/KH2PO4 at pH 7.8, 1 mM EDTA, 1 mM DTT, 0.2 mg/mL BSA, 20 mM NaCl, 150 nM DNMT3A_CD, 10 uM poly dI-dC (Sigma Aldrich), and 10 uM SAM (Sigma Aldrich) unless otherwise stated. The SAM cofactor was diluted with [3H]-SAM from PerkinElmer in 10 mM H2SO4. All inhibitors were dissolved and diluted in DMSO prior to addition to methylation reactions. Reactions with and without […]
All reactions containing inhibitors were preincubated with DNMT3A and inhibitor for 1 hour. Reactions were activated with poly dI-dC to a final volume of 20 uL, then incubated at 37 °C for 1 hour. Reaction aliquots were spotted on Hybond-N+ membranes (GE healthcare), then washed with 50 mM K2HPO4/KH2PO4 at pH 7.8 and ethanol. Membranes were dried and counted using a Hidex LS 300 scintillation counter.
In vitro methylation assays were performed as described above using two concentrations of inhibitor (0 uM and ~IC50) and varied concentrations of substrate SAM or poly dI-dC while the other substrate is held at a saturating concentration of 10 uM. For the variation of SAM, concentrations of 0.15, 0.25, 0.5, 1, 3 and 10 uM were used, while for the variation of poly dI-dC concentrations of 0.15, 0.25, 0.5, 1, 2.5, and 10 uM were used. Data was fitted globally with Prism 10 and best-fit inhibition models were determined using an F-test (p < 0.0001).
Lineweaver-Burke plots were generated and fit to a linear regression model. Data represent the mean and standard deviation of three independent reactions. […]
Figure S2: Double reciprocal plots for 1a (A, B), 3 (C, D), 4 (E, F), 5 (G, H), and 10 (I, J) with DNA and SAM. The data points represent the mean and standard deviation of three independent reactions. Reactions were done at initial velocity conditions using 150 nM DNMT3A, and varied concentrations of one substrate (0.15 –10 uM) while the other was saturated at 10 uM. Linear fits […]
competitive inhibition and uncompetitive inhibition respectively.
(1 picture or pasted object on this page, not shown here) […]
coefficient is a measure of the inhibitor’s preference for E and ES kinetic species.
Table S1: Determination of best fit inhibition models for 1a, 3, 4, 5, and 10 by R2 comparison […]
Most of the inhibitors have α < 1, where the inhibitor prefers the enzyme-substrate complex. […]

Series [2] deals with acute myeloid leukemia cell. Also noted: method as in PMID 35866897. Particulars: cited from earlier work.
Series [3] deals with T1, DNMT3A_CD (catalytic domain of DNMT3A). Nature of the series: In vitro methylation assay, IC50 determination ([3H]-SAM, poly dI-dC). The format is biochemical. Particulars: 150 nM DNMT3A, 10 uM SAM, 10 uM poly dI-dC; 1 hour preincubation; Hill slope constrained to -2. As to the method: Expression and Purification of DNMT3A_CD
The catalytic domain of DNMT3A (residues 634 -912) were used for all experiments […]
DNMT3A_CD was expressed in NiCo21 (DE3) cells (NEB) using a codon optimized plasmid pET28a-hDNMT3A_CD (∆1-611). Cell cultures were grown in LB medium at 37 °C to an OD600 = 0.8. Cultures were cooled to 25 °C, then expression was induced by the addition of 1 mM IPTG (Gold Biotechnology). Cells were harvested by centrifugation after 5 hours and flash frozen in liquid nitrogen for storage at -80 °C.
Cells were resuspended in lysis buffer containing 50 mM K2HPO4/KH2PO4, 500 mM NaCl, 50 mM imidazole, 10% glycerol [v/v], 1 mM EDTA and 1 mM PMSF at pH 7.8.
Sonication was used for lysis and the supernatant was collected after centrifugation at 18,000 x g for 1 hour. Lysates were applied to an ÄKTA start FPLC system (GE healthcare) and loaded onto a 1 mL HisTrap Excel column (Cytiva). The column was washed with 50 mL of lysis […]
as §1, §2, §3
All reactions containing inhibitors were preincubated with DNMT3A and inhibitor for 1 hour. Reactions were activated with poly dI-dC to a final volume of 20 uL, then incubated at 37 °C for 1 hour. Reaction aliquots were spotted on Hybond-N+ membranes (GE healthcare), then washed with 50 mM K2HPO4/KH2PO4 at pH 7.8 and ethanol. Membranes were dried and counted using a Hidex LS 300 scintillation counter. […]
Determination of IC50 Value
Percent activity of methylation assays was determined by comparing activities of assays with inhibitor to assays without inhibitor. Sigmoidal dose-response curves of percent activity vs compound concentration were fitted in Prism 10.
All assays were performed in triplicate, with additional repetitions added as necessary. […]
14). Reactions consisted of 150 nM DNMT3A, 10 uM SAM, and 10 uM poly dI -dC. The data

The target in the next series is DNMT3A. Also noted: method as in PMID 33705897. To be noted: with SAM; read-out: Ki with S-adenosyl methionine (SAM, AdoMet); cited from earlier work.
On the set-up of series [4]: method as in PMID 26935942. To be noted: versus FDA-approved inhibitors (azacytidine and decitabine); cited from earlier work.

T1 sequence (Q9Y6K1 634-912): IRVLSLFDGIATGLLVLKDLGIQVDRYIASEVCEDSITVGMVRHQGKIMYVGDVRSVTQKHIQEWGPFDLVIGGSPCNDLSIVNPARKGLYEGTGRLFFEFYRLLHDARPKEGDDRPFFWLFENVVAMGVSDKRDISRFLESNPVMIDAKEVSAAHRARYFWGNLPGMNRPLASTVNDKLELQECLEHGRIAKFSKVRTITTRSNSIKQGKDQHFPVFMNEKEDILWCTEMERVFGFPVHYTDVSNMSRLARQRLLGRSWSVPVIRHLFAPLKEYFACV

Regarding `COc1ccc(C2=NN(C3CCCCCC3)C(=O)[C@@H]3CC=CC[C@H]23)cc1OCCCCOc1ccc(-c2nnn[nH]2)cc1` [Compound 1a], in series [1], the “α coefficient from mixed-type inhibition model, varied SAM” value was < 1; the “α coefficient from mixed-type inhibition model, varied DNA” value was < 1; the “Best fit inhibition model” value is listed as “mixed-type inhibition model”. Also, in series [2], the AML cell differentiation entry is “induce acute myeloid leukemia cell differentiation”. In series [3], this compound yielded an IC50 of 14 ± 2 µM. Further, the Ki at DNMT3A was 9.16 to 18.9 µM. Besides, the Cytotoxicity entry in series [4] is listed as “significantly less cytotoxic than FDA-approved inhibitors”. Consider `COc1ccc(C2=NN(C3CCCCCC3)C(=O)C2(C)C)cc1OCCCCOc1ccc(-c2nnn[nH]2)cc1` [Compound 1b], for which, in series [2], the AML cell differentiation result was “induce acute myeloid leukemia cell differentiation”. Besides, the Ki at DNMT3A is 3.7 to 7.06 µM. Also, the Cytotoxicity entry in series [4] is reported as “significantly less cytotoxic than FDA-approved inhibitors”. As for `COc1ccc(C2=NN(C3CCCCCC3)C(=O)[C@@H]3CC=CC[C@H]23)cc1OCCCCOc1ccc(C#N)cc1` [Compound 2], the IC50 in series [3] is > 300 µM.

For `COc1ccc(C2=NN(C3CCCCCC3)C(=O)[C@@H]3CC=CC[C@H]23)cc1OCCCCOc1ccc(C(=O)O)cc1` [Compound 3], in series [1], the “α coefficient from mixed-type inhibition model, varied DNA” value is > 1 and the “Best fit inhibition model” value was “mixed-type inhibition model”. This compound also displayed an IC50 in series [3] of 23 µM. For the compound `O=C1[C@@H]2CC=CC[C@@H]2C(c2cccc(OCCCCOc3ccc(-c4nn[nH]n4)cc3)c2)=NN1C1CCCCCC1` [Compound 4], the “Best fit inhibition model” value in series [1] is “mixed-type inhibition model”. In addition, in series [3], the IC50 was 10 µM. For `CN1N=C(c2cccc(OCCCCOc3ccc(-c4nn[nH]n4)cc3)c2)[C@H]2CC=CC[C@H]2C1=O` [Compound 5], the “Best fit inhibition model” value in series [1] is reported as “mixed-type inhibition model”. The compound also showed an IC50 in series [3] of 41 µM.

As for `O=C1[C@@H]2CC=CC[C@@H]2C(c2cccc(OCCCCOc3ccc(-c4nn[nH]n4)cc3)c2)=NN1Cc1ccccc1` [Compound 6], the IC50 in series [3] came to 13 µM. Consider `O=C1[C@@H]2CC=CC[C@@H]2C(c2cccc(OCCCCOc3ccc(-c4nn[nH]n4)cc3)c2)=NN1Cc1ccc(F)c(F)c1` [Compound 7], for which the IC50 in series [3] came out at 18 µM. In the case of `O=C1[C@@H]2CC=CC[C@@H]2C(c2cccc(OCCCOc3ccc(-c4nn[nH]n4)cc3)c2)=NN1C1CCCCCC1` [Compound 8], the IC50 in series [3] was 11 µM.

Take `O=C1[C@@H]2CC=CC[C@@H]2C(c2cccc(OCCCCCOc3ccc(-c4nn[nH]n4)cc3)c2)=NN1C1CCCCCC1` [Compound 9]: the midpoint of inhibition in series [3], the IC50, lay at 9 µM. In the case of `O=C1[C@@H]2CC=CC[C@@H]2C(c2cccc(OC/C=C\COc3ccc(-c4nn[nH]n4)cc3)c2)=NN1C1CCCCCC1` [Compound 10], in series [1], the “α coefficient from mixed-type inhibition model, varied SAM” value is > 1 and the “Best fit inhibition model” value is on record as “mixed-type inhibition model”. The compound further showed an IC50 in series [3] of 11 µM. For the compound `O=C1[C@@H]2CC=CC[C@@H]2C(c2cccc(OC/C=C/COc3ccc(-c4nn[nH]n4)cc3)c2)=NN1C1CCCCCC1` [Compound 11], the IC50 in series [3] was 13 µM. On to `O=C(COc1cccc(C2=NN(C3CCCCCC3)C(=O)[C@@H]3CC=CC[C@H]23)c1)Nc1ccc(-c2nn[nH]n2)cc1` [Compound 12], for which inhibition in series [3] was half-maximal at 38 µM (IC50).

`O=c1c2ccccc2c(-c2cccc(OCCCCOc3ccc(-c4nn[nH]n4)cc3)c2)nn1C1CCCCCC1` [Compound 13] came in with an IC50 in series [3] of 13 µM. Regarding `c1ccc(OCCCCOc2ccc(-c3nn[nH]n3)cc2)cc1` [Compound 14], the IC50 in series [3] was > 100 µM.

A word on the IC50: it is the point on the concentration scale where inhibition reaches its midpoint. A lower IC50 goes with greater potency in that assay. One may read the Ki as the equilibrium dissociation constant of an inhibitor or competing ligand from its target.
